Assay results reported in patent US5413990A, “N-terminus modified analogs of LHRH” (Tap Pharmaceuticals Inc., priority 1993, dated 1995).
Numbered stars: 1 amine (or outer) side, 2 acyl side, 3 side chain; on linkers, the order of the positions; unused ones are H or OH. Square brackets hold non-standard residues; d marks the D form. Peptide text beside a SMILES is read from it. * marks the point of attachment. X3 = NC(=O)N[C@H](Cc1ccc2ccccc2c1)C(=O)*; dPhe(4-Cl) = N[C@H](Cc1ccc(Cl)cc1)C(=O)O; NH(2-morpholinoethyl) = C(CN1CCOCC1)N*; d2Nal = N[C@H](Cc1ccc2ccccc2c1)C(=O)O; Lys(iPr) = CC(C)NCCCC[C@H](N)C(=O)O; NMeY = CN[C@@H](Cc1ccc(O)cc1)C(=O)O; Cyclohexylacetyl = O=C(CC1CCCCC1)*; Cyclopropanecarbonyl = O=C(C1CC1)*; dCit = NC(=O)NCCC[C@@H](N)C(=O)O; d3Pal = N[C@H](Cc1cccnc1)C(=O)O; Suc = O=C(CCC(=O)[*:2])[*:1]; Succinamoyl = NC(=O)CCC(=O)*; Nicotinoyl = O=C(c1cccnc1)*; X2 = O=C(CCc1ccc2ccccc2c1)*; Methoxyacetyl = COCC(=O)*; Morpholide = C1CN(*)CCO1; CO = O=C([*:1])[*:2]; Propionyl = CCC(=O)*; Butyryl = CCCC(=O)*; Glycolyl = O=C(CO)*

Target: T1, LHRH (Rattus norvegicus, UniProt P30969)
T1 construct: evaluated in an in vitro test for LHRH antagonist potency (pA2); endogenous in cells; host or cells: pituitary cells (rat, from my own knowledge of the cited method)
T1 sequence (P30969 1-327): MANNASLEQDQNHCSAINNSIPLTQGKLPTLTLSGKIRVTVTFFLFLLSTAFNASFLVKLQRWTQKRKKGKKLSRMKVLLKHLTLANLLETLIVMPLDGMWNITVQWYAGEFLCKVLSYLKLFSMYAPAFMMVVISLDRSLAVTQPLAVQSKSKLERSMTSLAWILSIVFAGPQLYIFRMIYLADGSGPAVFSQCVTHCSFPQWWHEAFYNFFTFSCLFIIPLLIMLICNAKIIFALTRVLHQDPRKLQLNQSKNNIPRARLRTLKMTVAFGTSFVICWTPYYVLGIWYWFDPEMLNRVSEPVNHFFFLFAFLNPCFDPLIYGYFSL
Experiment: in vitro test for LHRH antagonist potency (pA2)
Assay type: cell-based
Conditions: negative logarithm of the antagonist concentration required to shift the response curve produced by the agonist leuprolide to two-fold higher concentration
Description: Representative compounds of the present invention were evaluated in an in vitro test for LHRH antagonist potency (pA2). The test employed the method detailed in F. Haviv, et al. J. Med. Chem., 32:2340-2344 (1989). The values of pA2 are the negative logarithms of the concentration of the particular antagonist test compound required to shift the response curve produced by the agonist leuprolide to two-fold higher concentration. (Leuprolide is the LHRH agonist having the structure 5-oxo-Pro^1 -His^2 -Trp^3 -Ser^4 -Tyr^5 -D-Leu^6 -Leu^7 -Arg^8 -Pro^9 -NHEt and is disclosed and claimed in U.S. Pat. No. 4,005,063.) Typically pA2 values of 9.5 or greater are indicative of good LHRH antagonist potency, with values of 10.0 or greater being preferred.

| SMILES | Kb [pM] |
| --- | --- |
| CCC(=O)N[C@H](Cc1ccc2ccccc2c1)C(=O)N[C@H](Cc1ccc(Cl)cc1)C(=O)N[C@H](Cc1cccnc1)C(=O)N[C@@H](CO)C(=O)N(C)[C@@H](Cc1ccc(O)cc1)C(=O)N[C@H](CCCNC(N)=O)C(=O)N[C@@H](CC(C)C)C(=O)N[C@@H](CCCNC(=N)N)C(=O)N1CCC[C@H]1C(=O)N[C@H](C)C(N)=O [Example 5b, N-Propionyl-D2Nal-D4ClPhe-D3Pal-Ser-NMeTyr-DCit-Leu-Arg-Pro-DAlaNH2] (Propionyl-[d2Nal][dPhe(4-Cl)][d3Pal]S[NMeY][dCit]LRP[dA]-NH2) | 3.47 |
| CC(C)C[C@H](NC(=O)[C@@H](CCCCNC(=O)c1cccnc1)NC(=O)[C@H](Cc1ccc(O)cc1)N(C)C(=O)[C@H](CO)NC(=O)[C@@H](Cc1cccnc1)NC(=O)[C@@H](Cc1ccc(Cl)cc1)NC(=O)[C@@H](Cc1ccc2ccccc2c1)NC(=O)CCc1ccc2ccccc2c1)C(=O)N[C@@H](CCCCNC(C)C)C(=O)N1CCC[C@H]1C(=O)N[C@H](C)C(N)=O [Example 2o, N-3(2-Naphthyl)propionyl-D2Nal-D4ClPhe-D3Pal-Ser-NMeTyr-DLys(N-epsilon-Nicotinyl)-Leu-Lys(N-epsilon-Isopropyl) -Pro-DAlaNH2] (X2-[d2Nal][dPhe(4-Cl)][d3Pal]S[NMeY][dK](Nicotinoyl)L[Lys(iPr)]P[dA]-NH2) | 79.4 |
| CC(C)C[C@H](NC(=O)[C@@H](CCCCNC(=O)c1cccnc1)NC(=O)[C@H](Cc1ccc(O)cc1)N(C)C(=O)[C@H](CO)NC(=O)[C@@H](Cc1cccnc1)NC(=O)[C@@H](Cc1ccc(Cl)cc1)NC(=O)[C@@H](Cc1ccc2ccccc2c1)NC(=O)C1CC1)C(=O)N[C@@H](CCCCNC(C)C)C(=O)N1CCC[C@H]1C(=O)N[C@H](C)C(N)=O [Example 2f, N-Cyclopropylcarbonyl-D2Nal-D4ClPhe- D3Pal-Ser-NMeTyr-DLys(N-epsilon-Nicotinyl)-Leu-Lys(N-epsilon-Isopropyl)-Pro-DAlaNH 2] (Cyclopropanecarbonyl-[d2Nal][dPhe(4-Cl)][d3Pal]S[NMeY][dK](Nicotinoyl)L[Lys(iPr)]P[dA]-NH2) | 3.55 |
| CCNC(=O)N[C@H](Cc1ccc2ccccc2c1)C(=O)N[C@H](Cc1ccc(Cl)cc1)C(=O)N[C@H](Cc1cccnc1)C(=O)N[C@@H](CO)C(=O)N(C)[C@@H](Cc1ccc(O)cc1)C(=O)N[C@H](CCCNC(N)=O)C(=O)N[C@@H](CC(C)C)C(=O)N[C@@H](CCCNC(=N)N)C(=O)N1CCC[C@H]1C(=O)N[C@H](C)C(N)=O [Example 8a, N-(Ethylaminocarbonyl)-D2Nal- D4ClPhe-D3Pal-Ser-NMeTyr-DCit-Leu-Arg-ProDAlaNH2] ({NHEt-CO}-[d2Nal][dPhe(4-Cl)][d3Pal]S[NMeY][dCit]LRP[dA]-NH2) | 93.3 |
| CC(C)C[C@H](NC(=O)[C@@H](CCCNC(N)=O)NC(=O)[C@H](Cc1ccc(O)cc1)N(C)C(=O)[C@H](CO)NC(=O)[C@@H](Cc1cccnc1)NC(=O)[C@@H](Cc1ccc(Cl)cc1)NC(=O)[C@@H](Cc1ccc2ccccc2c1)NC(=O)CCC(N)=O)C(=O)N[C@@H](CCCNC(=N)N)C(=O)N1CCC[C@H]1C(=O)N[C@H](C)C(N)=O [Example 5d, N-Succinamyl-D2Nal-D4ClPhe-D3Pal-Ser-NMeTyr-DCit-Leu-Arg-Pro-DAlaNH2] (Succinamoyl-[d2Nal][dPhe(4-Cl)][d3Pal]S[NMeY][dCit]LRP[dA]-NH2) | 6.46 |
| CC(C)C[C@H](NC(=O)[C@@H](CCCCNC(=O)c1cccnc1)NC(=O)[C@H](Cc1ccc(O)cc1)N(C)C(=O)[C@H](CO)NC(=O)[C@@H](Cc1cccnc1)NC(=O)[C@@H](Cc1ccc(Cl)cc1)NC(=O)[C@@H](Cc1ccc2ccccc2c1)NC(=O)CC1CCCCC1)C(=O)N[C@@H](CCCCNC(C)C)C(=O)N1CCC[C@H]1C(=O)N[C@H](C)C(N)=O [Example 2i, N-Cyclohexylacetyl-D2Nal-D4ClPhe-D3Pal-Ser-NMeTyr-DLys(N-epsilon-Nicotinyl)-Leu-Lys(N-epsilon-Isopropyl)-Pro-DAlaNH 2] (Cyclohexylacetyl-[d2Nal][dPhe(4-Cl)][d3Pal]S[NMeY][dK](Nicotinoyl)L[Lys(iPr)]P[dA]-NH2) | 1580 |
| CC(C)C[C@H](NC(=O)[C@@H](CCCNC(N)=O)NC(=O)[C@H](Cc1ccc(O)cc1)N(C)C(=O)[C@H](CO)NC(=O)[C@@H](Cc1cccnc1)NC(=O)[C@@H](Cc1ccc(Cl)cc1)NC(=O)[C@@H](Cc1ccc2ccccc2c1)NC(N)=O)C(=O)N[C@@H](CCCNC(=N)N)C(=O)N1CCC[C@H]1C(=O)N[C@H](C)C(N)=O [Example 7, N:(Aminocarbonyl)-D2Nal-D4ClPhe-D3 Pal-Ser- NMeTyr-DCit-Leu-Arg-ProDAIaNH2] (X3-[dPhe(4-Cl)][d3Pal]S[NMeY][dCit]LRP[dA]-NH2) | 6.03 |
| CCC(=O)N[C@H](Cc1ccc2ccccc2c1)C(=O)N[C@H](Cc1ccc(Cl)cc1)C(=O)N[C@H](Cc1cccnc1)C(=O)N[C@@H](CO)C(=O)N(C)[C@@H](Cc1ccc(O)cc1)C(=O)N[C@H](CCCCNC(=O)c1cccnc1)C(=O)N[C@@H](CC(C)C)C(=O)N[C@@H](CCCCNC(C)C)C(=O)N1CCC[C@H]1C(=O)N[C@H](C)C(N)=O [Example 2a, N-Propionyl-D2Nal-D4ClPhe-D3Pal-Ser-NMeTyr-DLys(N-epsilon-Nicotinyl)-Leu-Lys(N-epsilon-Isopropyl)-Pro-DAlaNH 2] (Propionyl-[d2Nal][dPhe(4-Cl)][d3Pal]S[NMeY][dK](Nicotinoyl)L[Lys(iPr)]P[dA]-NH2) | 5.01 |
| CC(C)C[C@H](NC(=O)[C@@H](CCCNC(N)=O)NC(=O)[C@H](Cc1ccc(O)cc1)N(C)C(=O)[C@H](CO)NC(=O)[C@@H](Cc1cccnc1)NC(=O)[C@@H](Cc1ccc(Cl)cc1)NC(=O)[C@@H](Cc1ccc2ccccc2c1)NC(=O)NCCN1CCOCC1)C(=O)N[C@@H](CCCNC(=N)N)C(=O)N1CCC[C@H]1C(=O)N[C@H](C)C(N)=O [Example 8c, N-(Morpholinoethylaminocarbonyl)-D2Nal-D4ClPhe-D3Pal-Ser-NMeTyr-DCit-Leu-Arg-Pro-DAlaNH2] ({NH(2-morpholinoethyl)-CO}-[d2Nal][dPhe(4-Cl)][d3Pal]S[NMeY][dCit]LRP[dA]-NH2) | 49 |
| COCC(=O)N[C@H](Cc1ccc2ccccc2c1)C(=O)N[C@H](Cc1ccc(Cl)cc1)C(=O)N[C@H](Cc1cccnc1)C(=O)N[C@@H](CO)C(=O)N(C)[C@@H](Cc1ccc(O)cc1)C(=O)N[C@H](CCCCNC(=O)c1cccnc1)C(=O)N[C@@H](CC(C)C)C(=O)N[C@@H](CCCCNC(C)C)C(=O)N1CCC[C@H]1C(=O)N[C@H](C)C(N)=O [Example 2d, N-Methoxyacetyl-D2Nal-D4ClPhe-D3Pal-Ser-NMeTyr-DLys(N-epsilon-Nicotinyl)-Leu-Lys(N-epsilon-Isopropyl)-Pro-DAlaNH 2] (Methoxyacetyl-[d2Nal][dPhe(4-Cl)][d3Pal]S[NMeY][dK](Nicotinoyl)L[Lys(iPr)]P[dA]-NH2) | 7.24 |
| CC(C)C[C@H](NC(=O)[C@@H](CCCNC(N)=O)NC(=O)[C@H](Cc1ccc(O)cc1)N(C)C(=O)[C@H](CO)NC(=O)[C@@H](Cc1cccnc1)NC(=O)[C@@H](Cc1ccc(Cl)cc1)NC(=O)[C@@H](Cc1ccc2ccccc2c1)NC(=O)N1CCOCC1)C(=O)N[C@@H](CCCNC(=N)N)C(=O)N1CCC[C@H]1C(=O)N[C@H](C)C(N)=O [Example 8b, N-(Morpholinocarbonyl)-D2Nal-D4ClPhe-D 3Pal- Ser-NMeTyr-DCit-Leu-Arg-Pro-DAlaNH2] ({Morpholide-CO}-[d2Nal][dPhe(4-Cl)][d3Pal]S[NMeY][dCit]LRP[dA]-NH2) | 20 |
| CCCC(=O)N[C@H](Cc1ccc2ccccc2c1)C(=O)N[C@H](Cc1ccc(Cl)cc1)C(=O)N[C@H](Cc1cccnc1)C(=O)N[C@@H](CO)C(=O)N(C)[C@@H](Cc1ccc(O)cc1)C(=O)N[C@H](CCCNC(N)=O)C(=O)N[C@@H](CC(C)C)C(=O)N[C@@H](CCCNC(=N)N)C(=O)N1CCC[C@H]1C(=O)N[C@H](C)C(N)=O [Example 5c, N-Butyryl-D2Nal-D4ClPhe-D3Pal-Ser-NMeTyr-DCit-Leu-Arg-Pro-DAlaNH2] (Butyryl-[d2Nal][dPhe(4-Cl)][d3Pal]S[NMeY][dCit]LRP[dA]-NH2) | 5.62 |
| CC(C)C[C@H](NC(=O)[C@@H](CCCNC(N)=O)NC(=O)[C@H](Cc1ccc(O)cc1)N(C)C(=O)[C@H](CO)NC(=O)[C@@H](Cc1cccnc1)NC(=O)[C@@H](Cc1ccc(Cl)cc1)NC(=O)[C@@H](Cc1ccc2ccccc2c1)NC(=O)CCC(=O)O)C(=O)N[C@@H](CCCNC(=N)N)C(=O)N1CCC[C@H]1C(=O)N[C@H](C)C(N)=O [Example 6, N-Succinyl-D2Nal-D4ClPhe-D3Pal-Ser-NMeTyr-DCit-Leu-Arg-Pro-DAlaNH2] (Suc-[d2Nal][dPhe(4-Cl)][d3Pal]S[NMeY][dCit]LRP[dA]-NH2) | 39.8 |
| CC(C)C[C@H](NC(=O)[C@@H](CCCNC(N)=O)NC(=O)[C@H](Cc1ccc(O)cc1)N(C)C(=O)[C@H](CO)NC(=O)[C@@H](Cc1cccnc1)NC(=O)[C@@H](Cc1ccc(Cl)cc1)NC(=O)[C@@H](Cc1ccc2ccccc2c1)NC(=O)CO)C(=O)N[C@@H](CCCNC(=N)N)C(=O)N1CCC[C@H]1C(=O)N[C@H](C)C(N)=O [Example 4, N-Glycolyl-D2Nal-D4ClPhe-D3Pal-Ser-NMeTyr-DCit-Leu-Arg-Pro-DAlaNH2] (Glycolyl-[d2Nal][dPhe(4-Cl)][d3Pal]S[NMeY][dCit]LRP[dA]-NH2) | 6.61 |
